Data from US12268674B2, “Mi-2β inhibitor as an immunotherapy agent” (BioVentures, LLC, priority 2021, dated 2025).
Like-named read-outs stand apart in the source and are kept apart here.

Experiments:
Test in all cases: ATPase profile (ATP acyl phosphate probe)
Type in all cases: binding
[1] = molecular target: T1, PSMC6 (Homo sapiens, UniProt P62333); settings: PSMC6, SEQ ID NO: 178, ATP BS
T1 construct: to get the native cell lysate; endogenous in cells; host or cells: A375 cell lysate

[2] = molecular target: T2, AK7 (Homo sapiens, UniProt Q96M32); settings: AK7, SEQ ID NO: 37, ATP BS
T2 construct: to get the native cell lysate; host or cells: A375 cell lysate

[3] = molecular target: T3, TTL (Homo sapiens, UniProt Q8NG68)
T3 construct: to get the native cell lysate; endogenous in cells; host or cells: A375 cell lysate
T3 sequence (Q8NG68 whole entry): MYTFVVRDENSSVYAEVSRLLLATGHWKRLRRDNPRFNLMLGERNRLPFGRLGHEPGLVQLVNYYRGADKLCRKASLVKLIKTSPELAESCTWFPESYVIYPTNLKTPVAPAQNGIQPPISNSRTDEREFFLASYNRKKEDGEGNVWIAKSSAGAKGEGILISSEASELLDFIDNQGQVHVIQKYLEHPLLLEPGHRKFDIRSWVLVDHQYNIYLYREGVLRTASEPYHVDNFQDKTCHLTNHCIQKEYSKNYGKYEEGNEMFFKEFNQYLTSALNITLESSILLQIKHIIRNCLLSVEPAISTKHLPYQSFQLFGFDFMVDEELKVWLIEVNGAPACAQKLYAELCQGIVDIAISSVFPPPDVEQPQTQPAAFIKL

[4] = tested on: ACTA2, ACTB, ACTBL2, ACTC1, ACTG1; settings: ACTBL2, ACTC1, ACTG1, SEQ ID NO: 24, ATP BS
[5] = molecular target: T4, TRAP1 (Homo sapiens, UniProt Q12931)
T4 construct: to get the native cell lysate; endogenous in cells; host or cells: A375 cell lysate
T4 sequence (Q12931 60-704): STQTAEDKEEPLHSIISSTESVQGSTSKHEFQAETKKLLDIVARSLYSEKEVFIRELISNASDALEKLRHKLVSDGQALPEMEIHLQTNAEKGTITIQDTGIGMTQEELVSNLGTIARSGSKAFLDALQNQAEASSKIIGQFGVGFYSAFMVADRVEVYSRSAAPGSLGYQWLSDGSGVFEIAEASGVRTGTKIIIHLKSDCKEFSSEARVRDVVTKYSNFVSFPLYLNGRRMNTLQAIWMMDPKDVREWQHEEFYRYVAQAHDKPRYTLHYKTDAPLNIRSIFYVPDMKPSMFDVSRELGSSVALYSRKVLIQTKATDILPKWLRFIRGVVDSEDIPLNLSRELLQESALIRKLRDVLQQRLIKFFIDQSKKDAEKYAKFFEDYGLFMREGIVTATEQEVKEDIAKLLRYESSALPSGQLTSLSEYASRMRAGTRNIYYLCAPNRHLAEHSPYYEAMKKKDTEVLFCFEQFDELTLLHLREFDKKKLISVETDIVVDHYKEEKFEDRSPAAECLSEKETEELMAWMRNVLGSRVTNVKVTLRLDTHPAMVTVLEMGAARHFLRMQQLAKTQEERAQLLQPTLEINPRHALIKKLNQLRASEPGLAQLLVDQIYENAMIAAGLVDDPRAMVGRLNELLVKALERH

[6] = molecular target: T5, RFK (Homo sapiens, UniProt Q969G6); settings: SEQ ID NO: 187, ATP BS
T5 construct: to get the native cell lysate; endogenous in cells; host or cells: A375 cell lysate

[7] = molecular target: T6, TTLL12 (Homo sapiens, UniProt Q14166)
T6 construct: to get the native cell lysate; endogenous in cells; host or cells: A375 cell lysate
T6 sequence (Q14166 whole entry): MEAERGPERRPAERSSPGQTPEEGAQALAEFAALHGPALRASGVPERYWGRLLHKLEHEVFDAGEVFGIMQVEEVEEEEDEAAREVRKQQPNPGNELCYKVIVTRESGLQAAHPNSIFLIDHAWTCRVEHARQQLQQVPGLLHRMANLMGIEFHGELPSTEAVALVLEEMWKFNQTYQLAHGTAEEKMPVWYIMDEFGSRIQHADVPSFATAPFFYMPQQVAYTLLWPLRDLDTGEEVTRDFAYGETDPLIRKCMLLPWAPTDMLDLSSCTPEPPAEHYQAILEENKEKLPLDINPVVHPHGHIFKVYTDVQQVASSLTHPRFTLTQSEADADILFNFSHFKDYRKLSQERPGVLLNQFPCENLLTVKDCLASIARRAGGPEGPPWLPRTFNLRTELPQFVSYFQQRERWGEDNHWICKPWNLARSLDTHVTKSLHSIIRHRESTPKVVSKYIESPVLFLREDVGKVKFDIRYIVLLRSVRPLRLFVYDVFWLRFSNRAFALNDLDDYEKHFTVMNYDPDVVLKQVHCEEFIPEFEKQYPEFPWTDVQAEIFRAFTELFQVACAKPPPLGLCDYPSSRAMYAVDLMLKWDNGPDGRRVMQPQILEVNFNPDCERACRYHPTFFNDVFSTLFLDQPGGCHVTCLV

[8] = molecular target: T7, TOR1B (Homo sapiens, UniProt O14657); settings: SEQ ID NO: 204, ATP BS
T7 construct: to get the native cell lysate; endogenous in cells; host or cells: A375 cell lysate

[9] = molecular target: T8, AK5 (Homo sapiens, UniProt Q9Y6K8); settings: AK5, SEQ ID NO: 36, ATP BS
T8 construct: to get the native cell lysate; host or cells: A375 cell lysate

[10] = molecular target: T9, MCM6 (Homo sapiens, UniProt P33991+Q14566); settings: read-out: Inhibition (%) by 1 μM Z36-MP5
T9 construct: to get the native cell lysate; endogenous in cells; host or cells: A375

[11] = molecular target: T10, PPCS (Homo sapiens, UniProt Q9HAB8)
T10 construct: to get the native cell lysate; endogenous in cells; host or cells: A375 cell lysate
T10 sequence (Q9HAB8 whole entry): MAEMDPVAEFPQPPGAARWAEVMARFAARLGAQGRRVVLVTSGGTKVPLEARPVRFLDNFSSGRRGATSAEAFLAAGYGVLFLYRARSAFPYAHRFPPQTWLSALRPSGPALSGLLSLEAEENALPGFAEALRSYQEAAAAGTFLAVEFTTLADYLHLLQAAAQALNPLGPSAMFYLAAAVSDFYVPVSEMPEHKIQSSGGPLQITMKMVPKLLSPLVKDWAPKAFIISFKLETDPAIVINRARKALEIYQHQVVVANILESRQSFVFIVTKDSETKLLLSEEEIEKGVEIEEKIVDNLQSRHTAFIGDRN

[12] = molecular target: T11, SPG7 (Homo sapiens, UniProt Q9UQ90); settings: SPG7, SEQ ID NO: 197, ATP BS
T11 construct: to get the native cell lysate; endogenous in cells; host or cells: A375 cell lysate

[13] = molecular target: T12, ENPP1 (Homo sapiens, UniProt P22413); settings: ENPP1, SEQ ID NO: 76, ATP BS
T12 construct: endogenous in cells; host or cells: A375 cell lysate

[14] = molecular target: T13, AK1 (Homo sapiens, UniProt P00568)
T13 construct: to get the native cell lysate; host or cells: A375 cell lysate
T13 sequence (P00568 whole entry): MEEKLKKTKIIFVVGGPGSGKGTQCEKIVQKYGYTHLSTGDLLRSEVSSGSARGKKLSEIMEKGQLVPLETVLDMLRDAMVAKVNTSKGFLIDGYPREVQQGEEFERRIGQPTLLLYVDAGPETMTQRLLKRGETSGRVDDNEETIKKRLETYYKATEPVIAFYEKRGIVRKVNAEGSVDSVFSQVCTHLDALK

[15] = molecular target: T14, GMPS (Homo sapiens, UniProt P49915)
T14 construct: endogenous in cells; host or cells: A375 cell lysate
T14 sequence (P49915 whole entry): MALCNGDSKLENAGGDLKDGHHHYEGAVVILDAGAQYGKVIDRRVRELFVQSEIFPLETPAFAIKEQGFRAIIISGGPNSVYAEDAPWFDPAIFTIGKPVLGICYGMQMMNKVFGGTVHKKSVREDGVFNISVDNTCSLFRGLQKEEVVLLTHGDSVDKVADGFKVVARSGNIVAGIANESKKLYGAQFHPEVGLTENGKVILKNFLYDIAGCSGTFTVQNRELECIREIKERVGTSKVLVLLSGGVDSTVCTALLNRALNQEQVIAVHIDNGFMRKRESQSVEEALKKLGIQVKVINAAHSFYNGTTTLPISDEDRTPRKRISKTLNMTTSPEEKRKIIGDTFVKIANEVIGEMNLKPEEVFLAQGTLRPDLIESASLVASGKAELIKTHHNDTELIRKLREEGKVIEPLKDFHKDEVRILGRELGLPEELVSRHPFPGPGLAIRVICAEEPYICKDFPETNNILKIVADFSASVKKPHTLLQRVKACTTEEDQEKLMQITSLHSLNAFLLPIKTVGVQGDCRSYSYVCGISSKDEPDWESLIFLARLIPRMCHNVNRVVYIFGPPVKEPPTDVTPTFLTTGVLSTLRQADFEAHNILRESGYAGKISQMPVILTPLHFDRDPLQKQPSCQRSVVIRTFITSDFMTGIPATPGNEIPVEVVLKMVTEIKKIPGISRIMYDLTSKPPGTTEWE

[16] = molecular target: T15, PFKM (Homo sapiens, UniProt P08237); settings: SEQ ID NO: 159, ATP BS
T15 construct: to get the native cell lysate; endogenous in cells; host or cells: A375 cell lysate

[17] = molecular target: T16, SMC3 (Homo sapiens, UniProt Q9UQE7); settings: SMC3, SEQ ID NO: 194, ATP BS
T16 construct: to get the native cell lysate; endogenous in cells; host or cells: A375 cell lysate

[18] = molecular target: T17, BAT1 (Homo sapiens, UniProt Q13838); settings: BAT1, SEQ ID NO: 49, ATP BS
T17 construct: to get the native cell lysate; host or cells: A375 cell lysate

[19] = tested on: PRPS1L1, PRPS2; settings: PRPS1L1, PRPS2, SEQ ID NO: 172, ATP BS
[20] = molecular target: T18, PDE12 (Homo sapiens, UniProt Q6L8Q7); settings: PDE12, SEQ ID NO: 155, ATP BS
T18 construct: to get the native cell lysate; endogenous in cells; host or cells: A375 cell lysate

[21] = molecular target: T19, DCTPP1 (Homo sapiens, UniProt Q9H773); settings: DCTPP1, SEQ ID NO: 65, ATP BS
T19 construct: endogenous in cells; host or cells: A375 cell lysate
T19 sequence (Q9H773 2-170 limits assumed): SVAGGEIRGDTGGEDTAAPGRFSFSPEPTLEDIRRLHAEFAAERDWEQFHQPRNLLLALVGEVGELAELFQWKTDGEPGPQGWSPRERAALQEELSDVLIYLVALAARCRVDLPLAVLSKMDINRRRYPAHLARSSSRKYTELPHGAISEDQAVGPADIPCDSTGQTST

[22] = molecular target: T20, RUVBL2 (Homo sapiens, UniProt Q9Y230); settings: RUVBL2, SEQ ID NO: 189, ATP BS
T20 construct: to get the native cell lysate; endogenous in cells; host or cells: A375 cell lysate

[23] = molecular target: T21, GSS (Homo sapiens, UniProt P48637)
T21 construct: endogenous in cells; host or cells: A375 cell lysate
T21 sequence (P48637 whole entry): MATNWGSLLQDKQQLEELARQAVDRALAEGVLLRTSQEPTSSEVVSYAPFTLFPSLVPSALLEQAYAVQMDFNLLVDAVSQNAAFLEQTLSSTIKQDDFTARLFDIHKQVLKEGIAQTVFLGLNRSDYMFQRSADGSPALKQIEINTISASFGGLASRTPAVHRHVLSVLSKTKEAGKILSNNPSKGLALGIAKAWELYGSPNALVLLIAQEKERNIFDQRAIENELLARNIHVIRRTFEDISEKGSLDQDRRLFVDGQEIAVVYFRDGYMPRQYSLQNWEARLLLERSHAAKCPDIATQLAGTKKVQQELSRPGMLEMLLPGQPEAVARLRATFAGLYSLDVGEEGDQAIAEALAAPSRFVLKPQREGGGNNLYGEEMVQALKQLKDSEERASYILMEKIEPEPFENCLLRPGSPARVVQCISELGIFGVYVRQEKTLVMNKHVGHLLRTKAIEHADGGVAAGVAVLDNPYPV

[24] = tested on: TOR2A, TOR2X; settings: SEQ ID NO: 205, ATP BS
[25] = molecular target: T22, NDUFA10 (Homo sapiens, UniProt O95299); settings: NDUFA10, SEQ ID NO: 132, ATP BS
T22 construct: to get the native cell lysate; endogenous in cells; host or cells: A375

[26] = molecular target: T23, ATAD1 (Homo sapiens, UniProt Q8NBU5); settings: ATAD1, SEQ ID NO: 44, ATP BS
T23 construct: to get the native cell lysate; host or cells: A375 cell lysate

[27] = molecular target: T24, EPRS (Homo sapiens, UniProt P07814); settings: SEQ ID NO: 77, ATP BS
T24 construct: endogenous in cells; host or cells: A375 cell lysate
T24 sequence (P07814 whole entry): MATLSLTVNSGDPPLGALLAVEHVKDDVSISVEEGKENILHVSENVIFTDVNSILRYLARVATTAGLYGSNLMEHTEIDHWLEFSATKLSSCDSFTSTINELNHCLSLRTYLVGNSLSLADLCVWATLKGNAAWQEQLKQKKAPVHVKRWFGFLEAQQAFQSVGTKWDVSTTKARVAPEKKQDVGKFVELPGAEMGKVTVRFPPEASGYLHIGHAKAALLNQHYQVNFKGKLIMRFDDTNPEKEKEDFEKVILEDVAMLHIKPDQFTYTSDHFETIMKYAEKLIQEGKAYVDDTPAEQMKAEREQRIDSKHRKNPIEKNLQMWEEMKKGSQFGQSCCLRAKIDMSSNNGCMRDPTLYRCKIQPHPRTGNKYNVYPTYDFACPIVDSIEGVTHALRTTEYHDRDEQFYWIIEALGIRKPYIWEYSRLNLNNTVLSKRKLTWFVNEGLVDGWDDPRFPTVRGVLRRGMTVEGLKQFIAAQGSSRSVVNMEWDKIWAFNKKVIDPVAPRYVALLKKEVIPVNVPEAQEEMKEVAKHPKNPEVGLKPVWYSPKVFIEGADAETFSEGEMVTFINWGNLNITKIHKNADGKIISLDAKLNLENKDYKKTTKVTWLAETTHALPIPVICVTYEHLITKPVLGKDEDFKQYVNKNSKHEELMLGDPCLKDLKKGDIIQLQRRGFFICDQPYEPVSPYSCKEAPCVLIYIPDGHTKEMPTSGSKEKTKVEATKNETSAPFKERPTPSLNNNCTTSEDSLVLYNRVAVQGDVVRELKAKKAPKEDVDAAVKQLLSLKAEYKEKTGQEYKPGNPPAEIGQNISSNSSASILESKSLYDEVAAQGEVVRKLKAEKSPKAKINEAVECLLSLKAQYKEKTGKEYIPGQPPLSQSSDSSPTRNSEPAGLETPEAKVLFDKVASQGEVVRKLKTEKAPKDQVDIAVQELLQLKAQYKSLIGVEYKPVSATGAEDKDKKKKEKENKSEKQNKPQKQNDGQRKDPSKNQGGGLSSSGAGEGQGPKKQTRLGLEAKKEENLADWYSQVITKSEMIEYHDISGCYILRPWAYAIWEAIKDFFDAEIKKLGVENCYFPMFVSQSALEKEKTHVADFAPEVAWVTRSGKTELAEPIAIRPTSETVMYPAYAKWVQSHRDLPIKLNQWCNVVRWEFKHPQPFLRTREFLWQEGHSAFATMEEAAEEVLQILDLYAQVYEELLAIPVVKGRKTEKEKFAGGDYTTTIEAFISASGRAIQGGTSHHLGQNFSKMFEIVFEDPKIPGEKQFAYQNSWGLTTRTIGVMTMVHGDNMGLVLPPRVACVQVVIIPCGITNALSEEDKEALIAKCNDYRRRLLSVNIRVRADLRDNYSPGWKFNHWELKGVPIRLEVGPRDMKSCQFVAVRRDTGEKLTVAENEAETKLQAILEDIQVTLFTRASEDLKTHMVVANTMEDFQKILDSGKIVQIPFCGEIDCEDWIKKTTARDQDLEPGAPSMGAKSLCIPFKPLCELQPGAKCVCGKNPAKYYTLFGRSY

[28] = molecular target: T25, TOR3A (Homo sapiens, UniProt Q9H497); settings: SEQ ID NO: 206, ATP BS
T25 construct: to get the native cell lysate; endogenous in cells; host or cells: A375 cell lysate

[29] = molecular target: T26, CMPK1 (Homo sapiens, UniProt P30085); settings: CMPK1, SEQ ID NO: 60, ATP BS
T26 construct: endogenous in cells; host or cells: A375 cell lysate

SMILES: Cn1c(=O)[nH]c2ccc(-c3cccc(C(=O)NC4CCn5ccnc5C4)c3)cc21 (stereo not shown) [Z36-MP5, 3-(3-methyl-2-oxo-2,3-dihydro-1H-benzo[d]imidazol-5-yl)-N-(5,6,7,8-tetrahydroimidazo[1,2-a]pyridin-7-yl)benzamide]
- Inhibition (%) by 1 μM Z36-MP5 [1]: −0.83%
- Inhibition (%) by 1 μM Z36-MP5 [2]: 13.86%
- Inhibition (%) by 1 μM Z36-MP5 ([3]; SEQ ID NO: 213, ATP BS): 10.59%
- Inhibition (%) by 1 μM Z36-MP5 ([3]; SEQ ID NO: 214, ATP BS): −14.46%
- Inhibition (%) by 1 μM Z36-MP5 [4]: −15.29%
- Inhibition (%) by 1 μM Z36-MP5 ([5]; TRAP1, SEQ ID NO: 209, ATP BS): −10.78%
- Inhibition (%) by 1 μM Z36-MP5 ([5]; TRAP1, SEQ ID NO: 210, ATP BS): −11.57%
- Inhibition (%) by 1 μM Z36-MP5 [6]: 10.06%
- Inhibition (%) by 1 μM Z36-MP5 ([7]; TTLL12, SEQ ID NO: 215, ATP BS): −5.29%
- Inhibition (%) by 1 μM Z36-MP5 ([7]; TTLL12, SEQ ID NO: 216, ATP BS): −17.65%
- Inhibition (%) by 1 μM Z36-MP5 [8]: 2.00%
- Inhibition (%) by 1 μM Z36-MP5 [9]: 2.21%
- inhibition at 1 µM ([10]; MCM6, SEQ ID NO: 119, ATP BS): -5.23%
- inhibition at 1 µM ([10]; MCM6, SEQ ID NO: 120, ATP BS): -2.54%
- Inhibition (%) by 1 μM Z36-MP5 ([11]; SEQ ID NO: 165, ATP BS): −7.44%
- Inhibition (%) by 1 μM Z36-MP5 ([11]; SEQ ID NO: 166, ATP BS): −9.61%
- Inhibition (%) by 1 μM Z36-MP5 [12]: 0.12%
- Inhibition (%) by 1 μM Z36-MP5 [13]: 8.04%
- Inhibition (%) by 1 μM Z36-MP5 ([14]; AK1, SEQ ID NO: 31, ATP BS): −7.19%
- Inhibition (%) by 1 μM Z36-MP5 ([14]; AK1, SEQ ID NO: 32, ATP BS): −9.87%
- Inhibition (%) by 1 μM Z36-MP5 ([15]; SEQ ID NO: 85, labeling site Other): −13.99%
- Inhibition (%) by 1 μM Z36-MP5 ([15]; SEQ ID NO: 86, labeling site Other): 14.54%
- Inhibition (%) by 1 μM Z36-MP5 [16]: −8.93%
- Inhibition (%) by 1 μM Z36-MP5 [17]: −10.19%
- Inhibition (%) by 1 μM Z36-MP5 [18]: −9.58%
- Inhibition (%) by 1 μM Z36-MP5 [19]: −13.63%
- Inhibition (%) by 1 μM Z36-MP5 [20]: −5.87%
- Inhibition (%) by 1 μM Z36-MP5 [21]: 12.74%
- Inhibition (%) by 1 μM Z36-MP5 [22]: −0.97%
- Inhibition (%) by 1 μM Z36-MP5 ([23]; SEQ ID NO: 87, ATP BS): −5.02%
- Inhibition (%) by 1 μM Z36-MP5 ([23]; SEQ ID NO: 88, ATP BS): 7.54%
- Inhibition (%) by 1 μM Z36-MP5 [24]: 0.38%
- Inhibition (%) by 1 μM Z36-MP5 [25]: 14.09%
- Inhibition (%) by 1 μM Z36-MP5 [26]: 15.67%
- Inhibition (%) by 1 μM Z36-MP5 [27]: 0.78%
- Inhibition (%) by 1 μM Z36-MP5 [28]: 6.55%
- Inhibition (%) by 1 μM Z36-MP5 [29]: 2.41%
